According to patent US11702417B2, “Compounds for improving mRNA splicing” (The General Hospital Corporation, priority 2015, dated 2023):
Read-outs that look alike come from different tables or passages of the source.

Test system: FD (familial dysautomonia) IKBKAP minigene, exon 20 inclusion, in HEK293T cells
Experiment: Primary splicing assay (FD IKBKAP minigene, Firefly/Renilla luciferase reporter in HEK293T)
Format: cell-based, human
Conditions: for Emax / EC (maximum kinetin efficacy): Homo sapiens, HEK-293T; for EC (maximum kinetin efficacy): HEK293T, read-out: ECk (compound concentration at which the maximum kinetin efficacy (200 μM) is reached); for ECk, Firefly only: Renilla interference/Firefly only (footnote c)
[1] = max efficacy in Primary Assay, Firefly/Renilla ratio, kinetin and DMSO as positive and negative controls, 24 hours of treatment, read-out: Emax (%)
[2] = Firefly/Renilla ratio, 24 hours of treatment
[3] = max efficacy in Primary Assay, value flagged footnote a: Firefly inhibitor, read-out: Emax (%)
[4] = max efficacy, Firefly only, footnote c: Renilla interference/Firefly only, read-out: Emax (%) Firefly only

Row | Structure (SMILES) | Emax [1] [%] | EC (maximum kinetin efficacy) [2] [µM] | other results
1 | Cn1cnc2c(NCc3nccs3)nc(Cl)nc21 [(301)] | 45 | – | –
2 | Clc1nc2c(c(NCc3nccs3)n1)COC2 [(502)] | 28 | – | –
3 | Clc1cc(NCc2nccs2)n2ccnc2n1 [(295)] | 54 | – | –
4 | OCCn1cnc2c(NCc3ccco3)cc(Cl)nc21 [(254)] | 145 | 13.2 | –
5 | Clc1nc(NCc2cccnc2)c2cc[nH]c2n1 [(355)] | 26 | – | –
6 | Cc1cc2c(NCc3ccco3)nc(Cl)nc2[nH]1 [(115)] | 174 | 5.92 | –
7 | CCCOc1nc2nc(Cl)nc(NCc3ccncc3)c2n1C [(336)] | 20 | – | –
8 | Cc1cn(CCO)c2nc(Cl)nc(NCc3ccncn3)c12 [(128)] | 155 | 15.4 | –
9 | CC(C)(C)OC(=O)N1Cc2nc(Cl)nc(NCc3nccs3)c2C1 [(509)] | 40.8 | – | –
10 | CC(Nc1nc(Cl)nc2[nH]ccc12)c1nccs1 (stereo not shown) [(364)] | 18.2 | – | –
11 | c1nc2nc[nH]c(NC3CCCCCC3)c-2n1 [(512)] | 43.7 | – | –
12 | COc1nc2c(N(C)Cc3nccs3)nc(Cl)nc2[nH]1 [(351)] | 22 | – | –
13 | Fc1cccc(CNc2ncnc3[nH]cnc23)c1 [(12)] | – | – | Emax [3]: 54%
14 | COc1nc2c(NCc3ccco3)nc(Cl)nc2[nH]1 [(124)] | 180 | 2.41 | –
15 | CCCOc1nc2nc(Cl)nc(NCc3ccncn3)c2n1C [(337)] | 23 | – | –
16 | Clc1nc(NCc2ccncc2)c2nc(OCC3CCC3)[nH]c2n1 [(307)] | 292 | 0.21 | –
17 | COCc1cc2c(NCc3ccco3)nc(Cl)nc2[nH]1 [(166)] | 80 | – | –
18 | Nc1nc2c(NCc3ccco3)nc(Cl)nc2[nH]1 [(146)] | 154 | 9.41 | –
19 | NC(=O)c1c[nH]c2nc(Cl)nc(NCc3ccco3)c12 [(165)] | 59 | – | –
20 | [N-]=[N+]=Nc1nc2c(NCc3ccco3)nc(Cl)nc2[nH]1 [(133)] | 143 | 11.8 | –
21 | O=C(c1cc2c(NCc3ccco3)nc(Cl)nc2[nH]1)N1CCCC1 [(190)] | 68 | – | –
22 | OCCn1ccc2c(NCc3ccncn3)nc(Cl)nc21 [(127)] | 264 | 5.45 | –
23 | Clc1cc(NCc2ccncn2)n2ncnc2n1 [(286)] | 38 | – | –
24 | Clc1nc(NCc2nccs2)c2nc(OCc3nccs3)[nH]c2n1 [(329)] | 209 | 1.97 | –

Row | Structure (SMILES) | Emax [1] [%] | EC (maximum kinetin efficacy) [2] [µM] | other results
25 | Cc1nc2ncnc(NCc3ccco3)c2[nH]1 [(87)] | 46 | – | –
26 | CCCOc1nc2c(NCc3nccs3)nc(Cl)nc2n1CCO [(312)] | 195 | 2.29 | –
27 | Clc1cc(NCc2nccs2)n2nccc2n1 [(325)] | 20 | – | –
28 | Cn1cnc2nc(Cl)nc(NCc3ccncn3)c21 [(316)] | 108 | 7.09 | –
29 | Clc1nc(NCc2ccncn2)c2nc(C3CC3)[nH]c2n1 [(144)] | 127 | 7.7 | –
30 | COc1nc2c(NCc3cncs3)nc(Cl)nc2[nH]1 [(376)] | 23.5 | – | –
31 | CC(C)(O)Cn1ccc2c(NCc3ccco3)nc(Cl)nc21 [(155)] | – | 22.2 | Emax [3]: 151%
32 | Clc1nc(NCc2ccco2)c2c(CN3CCCC3)c[nH]c2n1 [(173)] | 30 | – | –
33 | NC(=O)c1nc2c(NCc3ccncc3)nc(Cl)nc2[nH]1 [(242)] | 31 | – | –
34 | Clc1nc(NCc2ccco2)c2nc(OCCOc3ccccc3)[nH]c2n1 [(481)] | 93.4 | 4.14 | –
35 | CC(C)Oc1nc2c(NCc3ccncc3)nc(Cl)nc2[nH]1 [(277)] | 197 | 0.46 | –
36 | Fc1cccnc1CNc1nc(Cl)nc2[nH]ccc12 [(495)] | 13.9 | – | –
37 | Clc1nc(NCc2ccncc2)c2nc[nH]c2n1 [(134)] | 174 | 6.25 | –
38 | FC(F)(F)CCOc1nc2c(NCc3nccs3)nc(Cl)nc2[nH]1 [(391)] | 193 | 1.02 | –
39 | Cc1nc2c(NCc3ccco3)c(C(N)=O)cnc2[nH]1 [(171)] | 48 | – | –
40 | OCCn1ccc2c(NCc3nccs3)nc(Cl)nc21 [(137)] | 214 | 7.25 | –
41 | Fc1cccc(CNc2nc(Cl)nc3[nH]ccc23)n1 [(494)] | 14.1 | – | –
42 | FC(F)(F)c1cccc(CCNc2ncnc3[nH]cnc23)c1 [(5)] | – | 63.5 | –
43 | Cn1cccc1CNc1nc(Cl)nc2[nH]ccc12 [(360)] | 12.3 | – | –
44 | Clc1nc(NCc2ccncn2)c2nc(C3CCC3)[nH]c2n1 [(236)] | 83 | – | –
45 | Clc1cc(NCc2ccncc2)c2nc[nH]c2n1 [(251)] | 258 | 3.65 | –
46 | CCOc1nc2c(NCc3nccs3)nc(Cl)nc2[nH]1 [(260)] | 130 | 3.43 | –
47 | N#Cc1c[nH]c2nc(Cl)nc(NCc3ccncc3)c12 [(151)] | 73 | – | –
48 | Cc1ccccc1CCNc1ncnc2[nH]cnc12 [(32)] | – | 60 | –

Row | Structure (SMILES) | Emax [1] [%] | EC (maximum kinetin efficacy) [2] [µM] | other results
49 | COC(=O)c1nc2c(NCc3ccco3)nc(Cl)nc2[nH]1 [(232)] | 59 | – | –
50 | CNC(=O)Cn1ccc2c(NCc3ccco3)nc(Cl)nc21 [(161)] | 65 | – | –
51 | OCCn1ncc2c(NCc3ccco3)nc(Cl)nc21 [(209)] | 176 | 12.2 | –
52 | O=c1[nH]c2nc(Cl)nc(NCc3nccs3)c2[nH]1 [(377)] | 101 | 7.21 | –
53 | Fc1c[nH]c2nc(Cl)nc(NCc3ccncn3)c12 [(112)] | – | – | Emax [4]: 111%; ECk, Firefly only: 5.33 µM⁻¹
54 | Fc1c[nH]c2nc(Cl)nc(NCc3ccncc3)c12 [(114)] | – | – | Emax [4]: 174%; ECk, Firefly only: 6.59 µM⁻¹
55 | CCCCOc1nc2c(NCc3ccco3)nc(Cl)nc2[nH]1 [(311)] | 221 | 0.56 | –
56 | Clc1nc(NCc2ccco2)c2c(-c3ccccc3)c[nH]c2n1 [(86)] | 29 | – | –
57 | COc1nc(NCc2ccco2)c2nc(OC)[nH]c2n1 [(365)] | 22.4 | – | –
58 | Clc1nc(NCc2cncs2)c2nc[nH]c2n1 [(378)] | 31.8 | – | –
59 | O=C(O)c1ccc(CNc2nc(Cl)nc3[nH]cc(F)c23)cc1 [(117)] | 23 | – | –
60 | NC(=O)c1cc2c(NCc3ccco3)nc(Cl)nc2[nH]1 [(188)] | 145 | 11.7 | –
61 | CC(C)(C)OC(=O)N1Cc2nc(Cl)nc(NCc3ccco3)c2C1 [(508)] | 80 | – | –
62 | Clc1nc(NCc2ccco2)c2ncsc2n1 [(253)] | 187 | 11.8 | –
63 | CNCc1cc2c(NCc3ccco3)nc(Cl)nc2[nH]1 [(181)] | 122 | 8.4 | –
64 | Clc1nc(NCc2ccncc2)c2c(Cl)c[nH]c2n1 [(207)] | 109 | 75.8 | –
65 | CC(C)COc1nc2c(NCc3nccs3)nc(Cl)nc2[nH]1 [(491)] | 155 | 0.48 | –
66 | N#Cc1nc2c(NCc3ccco3)nc(Cl)nc2[nH]1 [(162)] | 103 | 48.7 | –
67 | O=C(c1c[nH]c2nc(Cl)nc(NCc3ccco3)c12)N1CCCC1 [(168)] | 54 | – | –
68 | COc1nc2c(NCc3cnccn3)nc(Cl)nc2[nH]1 [(374)] | 34.2 | – | –
69 | Clc1nc(NCc2ccco2)c2nc(-c3ccccc3)[nH]c2n1 [(93)] | 63 | – | –
70 | N#Cc1cc2c(NCc3ccco3)nc(Cl)nc2[nH]1 [(223)] | 95 | – | –
71 | Clc1nc(NCc2ccncn2)c2c(Cl)c[nH]c2n1 [(210)] | 104 | 69.2 | –
